Results: ChEMBL document CHEMBL1201862, “PubChem BioAssay data set” (2004)
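Step 1: Grow cells in 96-well plates. Step 2: Expose to compound for 48 hours at 5 concentrations. Step 3: Interpolate endpoints linearly; if unreached, use highest concentration. GI50 is the concentration that inhibits growth by half.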 Activity calls are given as the source filed them. No stated cut-off is given here; in the data, active = GI50 up to about 1.1 µM and inactive = higher.

Assays:
Assay in all cases: growth of human tumour cells (NCI), 48 h
DMS-273 = test system: DMS-273
HOP-18 = test system: HOP-18
SNB-78 = test system: SNB-78
M19-MEL = test system: M19-MEL
RXF 631 = test system: RXF 631
DMS-114 = test system: DMS-114
KM-20L2 = test system: KM-20L2
LXFL 529 = test system: LXFL 529
XF498 = test system: XF498

SMILES	GI50 (DMS-273)	GI50 (HOP-18)	GI50 (SNB-78)	GI50 (M19-MEL)	GI50 (RXF 631)	GI50 (DMS-114)	GI50 (KM-20L2)	GI50 (LXFL 529)	GI50 (XF498)
CN(C)CCNC(=O)c1cccc2ccc(-c3ccc(-c4ccccc4)cc3)nc12	1.69 µM (inactive)	12.9 µM (inactive)	14 µM (inactive)	1.81 µM (inactive)	1.76 µM (inactive)	1.7 µM (inactive)	1.98 µM (inactive)	1.83 µM (inactive)	–
O=C1C=CC=CC2CC=C[C@@H](O)C12 (stereo not given in full)	22.6 µM (inactive)	–	32.4 µM (inactive)	16.8 µM (inactive)	–	18.1 µM (inactive)	21 µM (inactive)	17.5 µM (inactive)	–
CCc1nc2cc(/N=N/c3c(O)ccc4ccccc34)ccc2[nH]1	17.1 µM (inactive)	–	15.5 µM (inactive)	18.9 µM (inactive)	–	17.3 µM (inactive)	19.6 µM (inactive)	11.5 µM (inactive)	–
O=C1CCN2C(=O)CCN12	–	–	> 100 µM (inactive)	> 100 µM (inactive)	–	> 100 µM (inactive)	–	> 100 µM (inactive)	> 100 µM (inactive)
CCN(CC)c1ccc(/N=C2/C=CC(=O)c3ncccc32)c(C)c1	8.3 µM (inactive)	10.5 µM (inactive)	9.55 µM (inactive)	10.4 µM (inactive)	14.2 µM (inactive)	3.9 µM (inactive)	13.5 µM (inactive)	2.48 µM (inactive)	2.02 µM (inactive)
C/C(CCN(C)C)=N/O	–	0.4 µM (active)	15.8 µM (inactive)	0.798 µM (active)	–	0.8 µM (active)	8.47 µM (inactive)	0.346 µM (active)	17.8 µM (inactive)
COC(=O)NC(=O)c1cn(CCCOC(=O)CCCCCCCCC(=O)OCCCn2cc(C(=O)NC(=O)OC)c(=O)[nH]c2=O)c(=O)[nH]c1=O	> 100 µM (inactive)	> 100 µM (inactive)	78 µM (inactive)	> 100 µM (inactive)	50.9 µM (inactive)	> 100 µM (inactive)	> 100 µM (inactive)	> 100 µM (inactive)	19.3 µM (inactive)
[O-][n+]1c2cc(CN3CCOCC3)c(CN3CCOCC3)cc2[n+]([O-])c2c(O)cccc21	3.44 µM (inactive)	3.55 µM (inactive)	3.18 µM (inactive)	2.9 µM (inactive)	16.1 µM (inactive)	–	5.93 µM (inactive)	3.1 µM (inactive)	1.83 µM (inactive)
CC(=O)NNc1nc(C)c(C(=O)/C=C/c2ccc(Cl)cc2)s1	> 100 µM (inactive)	> 100 µM (inactive)	> 100 µM (inactive)	> 100 µM (inactive)	–	> 100 µM (inactive)	> 100 µM (inactive)	–	–
O=c1c2cc(Br)cc(Br)c2[nH]c(=S)n1-c1ccccc1	> 100 µM (inactive)	35.3 µM (inactive)	> 100 µM (inactive)	> 100 µM (inactive)	> 100 µM (inactive)	56.2 µM (inactive)	> 100 µM (inactive)	–	21.4 µM (inactive)
CCOC(=O)NC(=O)c1cn(CCCO)c(=O)[nH]c1=O	> 100 µM (inactive)	> 100 µM (inactive)	> 100 µM (inactive)	> 100 µM (inactive)	> 100 µM (inactive)	> 100 µM (inactive)	> 100 µM (inactive)	–	> 100 µM (inactive)
CN(C)CCNC(=O)c1cccc2c(Nc3ccc(S(=O)(=O)N=C(N)N)cc3)c3ccccc3nc12	6.59 µM (inactive)	–	–	18.7 µM (inactive)	–	2.34 µM (inactive)	32.9 µM (inactive)	7.89 µM (inactive)	19.3 µM (inactive)
COc1ccc2c(CCNC(C)=O)c(C(C)=O)[nH]c2c1	> 100 µM (inactive)	–	> 100 µM (inactive)	–	> 100 µM (inactive)	> 100 µM (inactive)	> 100 µM (inactive)	> 100 µM (inactive)	–
COc1cc(O)c2c(c1)C(=O)C=C(Cl)C2=O	> 100 µM (inactive)	> 100 µM (inactive)	> 100 µM (inactive)	> 100 µM (inactive)	51.4 µM (inactive)	> 100 µM (inactive)	> 100 µM (inactive)	> 100 µM (inactive)	42.2 µM (inactive)
CSc1nc(NC2OCC(OC(C)=O)C(OC(C)=O)C2OC(C)=O)c2c(OC(C)=O)c(C)c(=O)oc2n1 (stereo not given)	–	> 100 µM (inactive)	> 100 µM (inactive)	> 100 µM (inactive)	> 100 µM (inactive)	> 100 µM (inactive)	> 100 µM (inactive)	> 100 µM (inactive)	> 100 µM (inactive)
CC1=C(C)C(=O)c2c(cc3ccc4ccccc4n23)C1=O	> 100 µM (inactive)	> 100 µM (inactive)	> 100 µM (inactive)	> 100 µM (inactive)	> 100 µM (inactive)	> 100 µM (inactive)	–	> 100 µM (inactive)	–
CSc1nc2[nH]c(=O)c(C)nc2c(=O)[nH]1	> 100 µM (inactive)	–	–	> 100 µM (inactive)	–	> 100 µM (inactive)	> 100 µM (inactive)	> 100 µM (inactive)	> 100 µM (inactive)
COC(=O)C1C(=O)O[C@@H](c2ccc(OC)cc2)C1C(=O)OC (stereo not given in full)	> 100 µM (inactive)	> 100 µM (inactive)	–	> 100 µM (inactive)	–	> 100 µM (inactive)	> 100 µM (inactive)	> 100 µM (inactive)	> 100 µM (inactive)
CC1CCP(=O)(c2ccccc2)CC1 (stereo not given)	> 100 µM (inactive)	–	> 100 µM (inactive)	> 100 µM (inactive)	> 100 µM (inactive)	> 100 µM (inactive)	> 100 µM (inactive)	> 100 µM (inactive)	> 100 µM (inactive)
O=C1Nc2ccccc2/C1=N/NC(=O)c1ccccc1O	–	56 µM (inactive)	99.8 µM (inactive)	53 µM (inactive)	–	43.4 µM (inactive)	> 100 µM (inactive)	41.3 µM (inactive)	–
O=C(O)c1ccccc1NS(=O)(=O)c1ccc([N+](=O)[O-])cc1	> 100 µM (inactive)	> 100 µM (inactive)	> 100 µM (inactive)	–	> 100 µM (inactive)	–	> 100 µM (inactive)	> 100 µM (inactive)	> 100 µM (inactive)
